Source: ChEMBL document CHEMBL4359853, “Antiproliferative activity of (R)-4'-methylklavuzon on hepatocellular carcinoma cells and EpCAM+/CD133+ cancer stem cells via SIRT1 and Exportin-1 (CRM1) inhibition” (Eur J Med Chem, 2019)
Activity calls are given as the source filed them. The rule behind the calls is not given here.

Columns and labels:
HepG2 [1] = assay: Induction of apoptosis in human 3D HepG2 spheroids measured after 24 hrs by propidium iodide staining based immunofluorescence microscopy analysis; type: functional, cell-based
HepG2 [2] = assay: Cytotoxicity against human HepG2 cells assessed as reduction in cell viability after 48 to 72 hrs; type: functional, cell-based
Hep 3B2 = assay: Cytotoxicity against human Hep3B cells assessed as growth inhibition; type: functional, cell-based
HepG2 [3] = assay: Induction of apoptosis in human 3D HepG2 spheroids at 10 uM measured after 24 hrs by propidium iodide staining based immunofluorescence microscopy analysis; type: functional, cell-based
[4] = molecular target: T1, NAD-dependent protein deacetylase sirtuin-1 (Homo sapiens) (UniProt Q96EB6); assay: Inhibition of human recombinant SIRT1 at 10 uM using FLUOR DE LYS SIRT1, deacetylase as substrate preincubated for 2 mins followed by substrate addition measured after 1 hr in presence of NAD+ by fluorescence assay relative to control
T1 sequence (whole entry): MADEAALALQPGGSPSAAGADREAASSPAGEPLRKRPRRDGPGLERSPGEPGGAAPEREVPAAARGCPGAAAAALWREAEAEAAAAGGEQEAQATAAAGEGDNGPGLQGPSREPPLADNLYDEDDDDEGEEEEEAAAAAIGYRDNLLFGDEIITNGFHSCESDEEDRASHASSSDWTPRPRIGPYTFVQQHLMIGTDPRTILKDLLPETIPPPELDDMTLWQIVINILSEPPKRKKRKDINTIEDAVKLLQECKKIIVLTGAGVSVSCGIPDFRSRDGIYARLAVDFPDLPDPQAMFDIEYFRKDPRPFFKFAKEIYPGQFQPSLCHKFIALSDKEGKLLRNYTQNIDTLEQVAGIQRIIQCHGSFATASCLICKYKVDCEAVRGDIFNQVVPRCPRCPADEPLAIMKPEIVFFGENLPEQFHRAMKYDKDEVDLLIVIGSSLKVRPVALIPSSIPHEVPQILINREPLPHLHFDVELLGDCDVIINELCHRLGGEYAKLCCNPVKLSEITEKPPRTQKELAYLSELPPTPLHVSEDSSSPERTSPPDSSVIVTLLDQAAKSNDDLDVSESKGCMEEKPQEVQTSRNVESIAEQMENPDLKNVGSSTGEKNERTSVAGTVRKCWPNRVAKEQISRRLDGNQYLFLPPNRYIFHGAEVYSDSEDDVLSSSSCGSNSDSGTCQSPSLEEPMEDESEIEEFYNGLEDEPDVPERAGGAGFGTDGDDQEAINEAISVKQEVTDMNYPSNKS

HepG2 [5] = assay: Cytotoxicity against human HepG2 cells assessed as reduction in cell viability measured after 72 hrs by MTT assay; type: functional, cell-based; conditions: HepG2, 72 h
[6] = molecular target: Exportin-1 (Homo sapiens) (UniProt O14980); assay: Inhibition of CRM1 in human HuH7 cells assessed as accumulation of RIOK2 in nucleus at 0.1 to 10 uM measured after 6 hrs by DAPI staining based confocal microscopy analysis; type: cell-based
Exportin-1 (Homo sapiens), sequence (O14980 whole entry): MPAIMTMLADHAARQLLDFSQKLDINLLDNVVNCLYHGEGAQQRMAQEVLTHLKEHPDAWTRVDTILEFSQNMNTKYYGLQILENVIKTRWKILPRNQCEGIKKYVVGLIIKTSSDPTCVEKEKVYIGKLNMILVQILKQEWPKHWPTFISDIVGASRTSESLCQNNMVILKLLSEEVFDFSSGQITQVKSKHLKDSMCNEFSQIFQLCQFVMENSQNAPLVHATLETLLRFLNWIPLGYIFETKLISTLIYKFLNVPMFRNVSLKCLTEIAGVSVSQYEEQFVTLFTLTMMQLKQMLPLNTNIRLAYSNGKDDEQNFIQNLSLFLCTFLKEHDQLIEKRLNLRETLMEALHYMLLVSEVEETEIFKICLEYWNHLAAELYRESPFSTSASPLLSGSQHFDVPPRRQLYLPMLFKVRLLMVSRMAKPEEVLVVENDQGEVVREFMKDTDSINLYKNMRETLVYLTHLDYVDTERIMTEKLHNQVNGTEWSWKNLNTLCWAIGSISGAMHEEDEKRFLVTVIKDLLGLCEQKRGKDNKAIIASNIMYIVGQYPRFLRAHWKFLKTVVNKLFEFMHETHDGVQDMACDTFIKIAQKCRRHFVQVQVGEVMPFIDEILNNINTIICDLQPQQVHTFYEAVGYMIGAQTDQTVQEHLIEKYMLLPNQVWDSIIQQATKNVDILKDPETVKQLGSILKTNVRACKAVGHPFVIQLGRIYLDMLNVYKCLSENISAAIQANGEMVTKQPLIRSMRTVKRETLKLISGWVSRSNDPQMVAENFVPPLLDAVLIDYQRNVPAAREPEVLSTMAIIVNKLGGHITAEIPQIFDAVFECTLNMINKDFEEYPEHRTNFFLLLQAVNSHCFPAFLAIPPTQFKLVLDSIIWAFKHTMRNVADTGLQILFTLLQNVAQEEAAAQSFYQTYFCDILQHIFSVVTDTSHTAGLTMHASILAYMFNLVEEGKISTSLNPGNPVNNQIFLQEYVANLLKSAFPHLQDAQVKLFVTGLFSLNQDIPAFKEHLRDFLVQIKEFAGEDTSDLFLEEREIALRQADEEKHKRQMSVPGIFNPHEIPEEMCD

[7] = molecular target: Exportin-1 (Homo sapiens) (UniProt O14980); assay: Inhibition of CRM1 in human HuH7 cells assessed as accumulation of RIOK2 in nucleus at 1 and 10 uM measured after 24 hrs by DAPI staining based confocal microscopy analysis; type: cell-based
[8] = molecular target: T1, NAD-dependent protein deacetylase sirtuin-1 (Homo sapiens); assay: Inhibition of human recombinant SIRT1 at 100 uM using FLUOR DE LYS SIRT1, deacetylase as substrate preincubated for 2 mins followed by substrate addition measured after 1 hr in presence of NAD+ by fluorescence assay relative to control
HepG2 [9] = assay: Cytotoxicity against human HepG2 cells assessed as reduction in cell viability measured after 48 hrs by MTT assay; type: functional, cell-based; conditions: HepG2, 48 h
HepG2 [10] = assay: Cytotoxicity against human HepG2 cells assessed as reduction in cell viability measured after 24 hrs by MTT assay; type: functional, cell-based; conditions: HepG2, 24 h
Huh-7 [11] = assay: Cytotoxicity against human HuH7 cells assessed as reduction in cell viability measured after 48 hrs by MTT assay; type: functional, cell-based; conditions: Huh-7, 48 h
Huh-7 [12] = assay: Cytotoxicity against human HuH7 cells assessed as reduction in cell viability measured after 72 hrs by MTT assay; type: functional, cell-based; conditions: Huh-7, 72 h
Huh-7 [13] = assay: Cytotoxicity against human HuH7 cells assessed as reduction in cell viability measured after 24 hrs by MTT assay; type: functional, cell-based; conditions: Huh-7, 24 h

| Structure (SMILES) | Activity (HepG2 [1]) | IC50 (HepG2 [2]) [µM] | IC50 (Hep 3B2) [µM] | Activity (HepG2 [3]) | inhibition [4] [%] | IC50 (HepG2 [5]) [µM] | inhibition [6] | inhibition [7] | inhibition [8] [%] | IC50 (HepG2 [9]) [µM] | IC50 (HepG2 [10]) [µM] | IC50 (Huh-7 [11]) [µM] | IC50 (Huh-7 [12]) [µM] | IC50 (Huh-7 [13]) [µM] |
| --- | --- | --- | --- | --- | --- | --- | --- | --- | --- | --- | --- | --- | --- | --- |
| O=C1C=CC[C@H](/C=C/c2ccccc2)O1 [GONIOTHALAMIN] | Active | 0.625 to 2.5 | 5.4 | – | – | – | – | – | – | – | – | – | – | – |
| O=C1C=CCC(c2cc3c(c4ccccc24)CCCC3)O1 (racemic) | – | – | – | Active | 17 | 0.1 | Active | Active | 65 | 0.625 | 5 | 2.5 | 1.25 | 5 |
